Results on four compounds are retold here after US4009273A, “Substituted 10,11-dihydro-5,10-imino-[5H] dibenzo (a,d)-cycloheptene” (priority 1972, dated 1977).

For series [1], the system named is DOPA. Briefly: Potentialization of DOPA. The note with it: 1 h before 50 mg/kg DOPA. Type of series: in vivo, mice (male). How it is done: In this test, DOPA [racemic β-(3,4-dihydroxyphenyl)-alanine] was administered to mice pretreated with 1-isonicotinoyl-2-isopropyl-hydrazine18 hours before the test which product caused the following symptoms: hypertonicity, agitation, crying, aggressiveness, salivation and exophthalmia. The administration of an antidepressant one hour before the DOPA injection potentializes the intensity of the effects.
Male mice weighing between 18 to 22 g received intraperitoneally 50 mg/kg of 1-isonicotinoyl-2-isopropyl-hydrazine and 18 hours later the test product intraperitoneally in aqueous solution in increasing doses and 1 hour later received an intraperitoneal injection of 50 mg/kg of DOPA. The different effects were evaluated 15 and 30 minutes after the DOPA injection and each symptom was evaluated for each animal on a scale from 0 to 3 and the evaluations for each dose was totaled. The totals are reported in Table III as a percent of the total of control animals.

For series [2], the system named is reserpine ptosis of the eyelid. The experiment in a line: Antidepressant activity: antagonism of reserpine eyelid ptosis. It counts as in vivo, rats. The note with it: 1 h before 1 mg/kg reserpine. How it is done:
The antidepressant activity was determined by antagonism exercised by the compounds against the depressant activity of reserpine and this effect was determined by ptosis of the eyelid test codified by Rubin [J. Pharm. Exp. Ther., Vol. 120 (1957), p. 125]. The eyelid ptosis test is used to make a quantitative evaluation of the condition of the animal, but the antagonism exercised equally against the neuro depressive symptoms of reserpine; immobility, adynamia, hypothermia, myosis, etc. The reading was effected every hour for 6 hours after intraperitoneal injection of 1 mg/kg of reserpine to groups of rats who had one hour previously received intraperitoneally a variable dose of the test compounds. The ptosis provoked by the reserpine injection was diminished by the previous injection of the test compounds, all the more so at the elevated doses. The results were expressed as a percentage of protection compared to controls which received only reserpine and are reported in Table IV.

Series [3] can be described thus: Acute toxicity. Conditions: mouse, in vivo, ip, Swiss mice, observed for a week. The method, then:
The acute toxicity was determined on groups of Swiss mice weighing 18 to 22 g and the test products were administered intraperitoneally in increasing doses and the animals were kept under observation for a week.

Series [4] relates to amytal sleeping time. Briefly: Potentialization of sleeping time (amytal). It counts as in vivo, mice (female). The note with it: 1 h before 80 mg/kg amytal i.v. How it is done:
The potentialization of sleeping time was determined with a test using amytal [5-ethyl-5-isoamyl-barbituric acid] in which groups of female mice weighing between 18 and 22 g were kept at 25° C for the duration of the test. The test products were administered intraperitoneally at different doses one hour before intraveinous injection of 80 mg/kg of amytal and the sleeping time was noted which is the time while the reflux of straightening in the mice was negative.

The test system of series [5] is amphetamine deaths. The experiment in a line: Amphetamine toxicity in mice. It counts as in vivo, mice (female). The note with it: mortality at 4 h. How it is done:
The test was effected on group of 10 female mice weighing between 18 and 22 g kept at 27° C for the duration of the test. The test products were intraperitoneally administered in different doses in a volume of 0.01 ml /g of mouse. One hour later, the mice received an injection of 15 mg/kg of a solution of 1.5 mg of amphetamine per ml of physiological serum. The mortality 4 hours after the amphetamine injection was determined and the results were expressed as a ratio of number of dead animals to number of starting animals.

Series [6] has as its system pentamethylenetetrazol convulsions. Briefly: Anticonvulsant effect (pentamethylenetetrazol perfusion). Conditions: 1 h before perfusion. Type of series: in vivo, mice (female). The method, then:
The anticonvulsant activity of the compounds was determined on groups of 10 female mice with intraperitoneal administration of the test compounds in acid solution at different doses and the control group received only the solvent. One hour after the injection, the mice were perfused with a solution of pentamethylenetetrazol in physiological serum at a concentration of 3 mg/ml. The perfusion was intraveinous at a rate of 1 ml per minute and in the course of the perfusion, the progress of introxication was characterized by the following 3 criteria:
a. Threshold of convulsant effect (myoclonia of the ears)
b. Crisis of clonic convulsions
c. Tonic convulsion with apnea and generally followed by death.

The LD50 is the dose at which mortality reaches 50%. For `CN(C)CCN1C2Cc3ccccc3C1c1ccccc12` (stereo not drawn) [Example 29, 12-(2'-dimethylaminoethyl)-10,11-dihydro-5,10-imino-[5H]-dibenzo (a,d) cycloheptene dl], the “total symptom score as percent of the total of control animals” value (“total symptom score as percent” for short) in series [1] (10 mg/Kg i.p.) is 81%; in series [1] (20 mg/Kg i.p.) it was 101%; in series [1] (50 mg/Kg i.p.) it was 177%. Also, the “% Protection” value in series [2] (2 mg/Kg i.p.) came to 9%; in series [2] (10 mg/Kg i.p.), 40%; in series [2] (20 mg/Kg i.p.), 39%; in series [2] (50 mg/Kg i.p.), 66%. Besides, the median lethal dose (LD50) at 168 h in series [3] is about 180 mg/kg.
Regarding `NCCN1C2Cc3ccccc3C1c1ccccc12` (stereo not drawn) [Example 30, 12-(2'-aminoethyl)-10,11-dihydro-5,10-imino-[5H]-dibenzo (a,d) cycloheptene dl], the “total symptom score as percent” value in series [1] (10 mg/Kg i.p.) amounted to 113%; in series [1] (20 mg/Kg i.p.), 150%. The “% Protection” value amounted to 18% in series [2] (2 mg/Kg i.p.), 38% in series [2] (10 mg/Kg i.p.), 69% in series [2] (20 mg/Kg i.p.) and 74% in series [2] (50 mg/Kg i.p.). For the same compound, the average sleeping time was 46.3 min in series [4] (5 mg/Kg i.p.), 38.1 min in series [4] (10 mg/Kg i.p.), 64.1 min in series [4] (20 mg/Kg i.p.) and 89.0 min in series [4] (50 mg/Kg i.p.). In series [3], this compound registered an LD50 at 168 h of about 150 mg/kg.
`CC(=O)CN1C2Cc3ccccc3C1c1ccccc12` (stereo not drawn) [Example 7, 12-acetonyl-10,11-dihydro-5,10-imino-[5H]-dibenzo (a,d) cycloheptene dl]: the “ratio of number of dead animals to number of starting animals” value in series [5] (5 mg/Kg i.p., 1 h before 15 mg/kg amphetamine) is on record as 2/10; in series [5] (10 mg/Kg i.p., 1 h before 15 mg/kg amphetamine), 0/10; in series [5] (20 mg/Kg i.p., 1 h before 15 mg/kg amphetamine) it was 0/10; in series [5] (head prints only "mg/Kg" (dose figure missing), i.p.), 0/10. For the same compound, the “Dose of pentamethylenetetrazol, Clonic Crisis” value in series [6] (0.5 mg/Kg i.p.) was 53.3 mg/kg; in series [6] (1 mg/Kg i.p.) it was 52.7 mg/kg; in series [6] (2 mg/Kg i.p.) it was 62.6 mg/kg; in series [6] (5 mg/Kg i.p.), 112.5 mg/kg. In addition, the “Dose of pentamethylenetetrazol, Myoclonia” value in series [6] (0.5 mg/Kg i.p.) stood at 48.6 mg/kg; in series [6] (1 mg/Kg i.p.) it was 47.7 mg/kg; in series [6] (2 mg/Kg i.p.) it was 57.7 mg/kg; in series [6] (5 mg/Kg i.p.), 107.4 mg/kg. For the same compound, the “Dose of pentamethylenetetrazol, Tonic Crisis” value in series [6] (0.5 mg/Kg i.p.) was 119.2 mg/kg; in series [6] (1 mg/Kg i.p.), 172.5 mg/kg; in series [6] (2 mg/Kg i.p.), 172.5 mg/kg; in series [6] (5 mg/Kg i.p.) it was 238.9 mg/kg. Besides, the “total symptom score as percent” value was found to be 114% in series [1] (1 mg/Kg i.p.), 135% in series [1] (2 mg/Kg i.p.), 138% in series [1] (5 mg/Kg i.p.) and 173% in series [1] (10 mg/Kg i.p.). Also, the average sleeping time worked out at 31.3 min in series [4] (5 mg/Kg i.p.), 51.2 min in series [4] (10 mg/Kg i.p.), 82.3 min in series [4] (20 mg/Kg i.p.) and 107.5 min in series [4] (50 mg/Kg i.p.). The LD50 at 168 h in series [3] turned out to be 350 mg/kg.
On to `CNCCN1C2Cc3ccccc3C1c1ccccc12` (stereo not drawn) [Example 28, 12-(2'-methylaminoethyl)-10,11-dihydro-5,10-imino-[5H]-dibenzo (a,d) cycloheptene dl], for which the “% Protection” value in series [2] (2 mg/Kg i.p.) is on record as 10%; in series [2] (10 mg/Kg i.p.), 43%; in series [2] (20 mg/Kg i.p.) it was 60%; in series [2] (50 mg/Kg i.p.), 84%. In series [3], this compound returned an LD50 at 168 h of about 150 mg/kg.
